In US7674818B2, “Aryl, aryloxy, alkyloxy substituted 1H-indol-3-yl glyoxylic acid derivatives as inhibitors of plasminogen activator inhibitor-1 (PAI-1)” (Wyeth LLC, priority 2002, dated 2010):
pIC50: −log10 of the molar value.

How the values were obtained:
[1] = biological target: T1, recombinant human plasminogen activator inhibitor-1 (Homo sapiens, UniProt P05121); experiment: Primary screen for the PAI-1 inhibition (residual tPA activity, Spectrozyme-tPA chromogenic substrate); assay type: biochemical; settings: pH 6.6 buffer, 140 nM PAI-1, 70 nM tPA; for inhibition at 25 µM / Inhibition @25 uM (%): test compound 25 uM; for Inhibition (%) (100 uM): test compound 100 uM (cell annotated "(100 uM)" instead of 25 uM)
T1 construct: purchased Molecular Innovations, Royal Oak, Mich
T1 sequence (P05121 24-402): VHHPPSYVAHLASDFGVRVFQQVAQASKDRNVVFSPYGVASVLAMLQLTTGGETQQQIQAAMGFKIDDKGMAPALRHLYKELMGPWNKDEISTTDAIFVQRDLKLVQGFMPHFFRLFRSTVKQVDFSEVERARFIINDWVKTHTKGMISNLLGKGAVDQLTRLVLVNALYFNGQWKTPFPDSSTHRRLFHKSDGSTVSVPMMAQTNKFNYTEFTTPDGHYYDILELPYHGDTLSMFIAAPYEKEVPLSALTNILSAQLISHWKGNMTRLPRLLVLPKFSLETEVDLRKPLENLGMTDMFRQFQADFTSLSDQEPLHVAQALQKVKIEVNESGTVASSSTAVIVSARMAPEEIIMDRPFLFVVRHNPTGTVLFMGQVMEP
Protocol: Primary Screen for the PAI-1 Inhibition
Test compounds were dissolved in DMSO at a final concentration of 10 mM, then diluted 100× in physiologic buffer. The inhibitory assay was initiated by the addition of the test compound (1-100 μM final concentration, maximum DMSO concentration of 0.2%) in a pH 6.6 buffer containing 140 nM recombinant human plasminogen activator inhibitor-1 (Molecular Innovations, Royal Oak, Mich.). Following a 1 hour incubation at room temperature, 70 nM of recombinant human tissue plasminogen activator (tPA) was added, and the combination of the test compound, PAI-1 and tPA was incubated for an additional 30 minutes. Following the second incubation, Spectrozyme-tPA (American Diagnostica, Greenwich, Conn.), a chromogenic substrate for tPA, was added and absorbance read at 405 nm at 0 and 60 minutes. Relative PAI-1 inhibition was equal to the residual tPA activity in the presence of the test compound and PAI-1. Control treatments included the complete inhibition of tPA by PAI-1 at the molar ratio employed (2:1), and the absence of any effect of the test compound on tPA alone.

[2] = biological target: human PAI-1 (Homo sapiens, UniProt P05121); experiment: Assay for determining IC50 of inhibition of PAI-1 (active PAI-1 bound to tPA-coated plate, 33B8 antibody detection); assay type: biochemical; settings: human PAI-1 50 ng/ml, pH 7.5, tPA-coated plate
Chain of human PAI-1 (P05121 24-402): as above
Protocol: Assay for Determining IC50 OF Inhibition of PAI-1
This assay was based upon the non-SDS dissociable interaction between tPA and active PAI-1. Assay plates were initially coated with human tPA (10 μg/ml). The test compounds were dissolved in DMSO at 10 mM, then diluted with physiologic buffer (pH 7.5) to a final concentration of 1-50 μM. The test compounds were incubated with human PAI-1 (50 ng/ml) for 15 minutes at room temperature. The tPA-coated plate was washed with a solution of 0.05% Tween 20 and 0.1% BSA, then the plate is blocked with a solution of 3% BSA. An aliquot of the test compound/PAI-1 solution was then added to the tPA-coated plate, incubated at room temperature for 1 hour, and washed. Active PAI-1 bound to the plate was assessed by adding an aliquot of a 1:1000 dilution of the 33B8 monoclonal antibody against human PAI-1, and incubating the plate at room temperature for 1 hour (Molecular Innovations, Royal Oak, Mich.). The plate was again washed, and a solution of goat anti-mouse IgG-alkaline phosphatase conjugate is added at a 1:50,000 dilution in goat serum. The plate was incubated 30 minutes at room temperature, washed, and a solution of alkaline phosphatase substrate was added. The plate was incubated 45 minutes at room temperature, and color development was determined at OD405 nm. The quantitation of active PAI-1 bound to tPA at varying concentrations of the test compound was used to determine the IC50. Results were analyzed using a logarithmic best-fit equation. The assay sensitivity was 5 ng/ml of human PAI-1 as determined from a standard curve ranging from 0-100 ng/ml.

inhibition at 25 µM [1] | Compound | Inhibition (%) (100 uM) [1] | further results
1% | COc1cc(COc2cccc(-n3cc(C(=O)C(=O)O)c4cc(Cl)ccc43)c2)cc(OC)c1 [Example 10, {5-Chloro-1-[3-(3,5-dimethoxybenzyloxy)phenyl]-1H-indol-3-yl}(oxo)acetic acid] | – | –
44% | N#Cc1ccc(COc2cccc(-n3cc(C(=O)C(=O)O)c4cc(Cl)ccc43)c2)cc1 [Example 9, {5-Chloro-1-[3-(4-cyanobenzyloxy)phenyl]-1H-indol-3-yl}(oxo)acetic acid] | – | –
56% | O=C(O)C(=O)c1cn(-c2ccc(OC(F)(F)F)cc2)c2ccc(-c3ccc(OC(F)(F)F)cc3)cc12 [Example 20, [1,5-Bis-(4-trifluoromethoxy-phenyl)-1H-indol-3-yl]-oxo-acetic acid] | – | pIC50 [2]: < 4.60
54% | Cc1ccc2c(c1)c(C(=O)C(=O)O)cn2-c1ccc(OCc2cccc(Cl)c2)cc1 [Example 6, {1-[4-(3-Chlorobenzyloxy)phenyl]-5-methyl-1H-indol-3-yl}(oxo)acetic acid] | – | pIC50 [2]: < 4.60
5% | Cc1ccc2c(c1)c(C(=O)C(=O)O)cn2-c1ccc(OCc2cc(Cl)nc(Cl)c2)cc1 [Example 15, {1-[4-(2,6-dichloropyridin-4-ylmethoxy)phenyl]-5-methyl-1H-indol-3-yl}(oxo)acetic acid] | – | –
66% | O=C(O)C(=O)c1cn(-c2ccc(OCc3c(F)c(F)c(C(F)(F)F)c(F)c3F)cc2)c2ccccc12 [Example 11, {1-[4-(2,3,5,6-tetrafluoro-4-trifluoromethylbenzyloxy)phenyl]1H-indol-3-yl}(oxo)acetic acid] | – | –
75% | O=C(O)C(=O)c1cn(-c2cccc(OCc3c(F)c(F)c(C(F)(F)F)c(F)c3F)c2)c2ccc(Cl)cc12 [Example 16, {5-Chloro-1-[3-(2,3,5,6-tetrafluoro-4-trifluoromethylbenzyloxy)phenyl]1H-indol-3-yl}(oxo)acetic acid] | – | pIC50 [2]: < 4.60
45% | O=C(O)C(=O)c1cn(-c2cccc(OCc3ccc(-c4csnn4)cc3)c2)c2ccc(Cl)cc12 [Example 18, {5-Chloro-1-[3-(4-[1,2,3]thiadiazol-4-ylbenzyloxy)phenyl]-1H-indol-3-yl}(oxo)acetic acid] | – | –
26% | COc1cc(COc2ccc(-n3cc(C(=O)C(=O)O)c4cc(F)ccc43)cc2)cc(OC)c1 [Example 5, {1-[4-(3,5-Dimethoxybenzyloxy)phenyl]-5-fluoro-1H-indol-3-yl}(oxo)acetic acid] | – | –
52% | O=C(O)C(=O)c1cn(Cc2ccccc2)c2ccc(Oc3ccc(C(F)(F)F)cc3Cl)cc12 [Example 23, [1-Benzyl-5-(2-chloro-4-trifluoromethyl-phenoxy)-1H-indol-3-yl](oxo)acetic acid] | – | pIC50 [2]: 4.91; melting point: 152 to 154 °C
46% | O=C(O)C(=O)c1cn(-c2cccc(OCc3cc(Cl)nc(Cl)c3)c2)c2ccc(Cl)cc12 [Example 19, {5-Chloro-1-[3-(2,6-dichloropyridin-4-ylmethoxy)phenyl]-1H-indol-3-yl}(oxo)acetic acid] | – | –
62% | Cc1ccc2c(c1)c(C(=O)C(=O)O)cn2-c1ccc(OCc2ccc(C(C)(C)C)cc2)cc1 [Example 7, {1-[4-(4-tert-Butylbenzyloxy)phenyl]-5-methyl-1H-indol-3-yl}(oxo)acetic acid] | – | –
39% | O=C(O)C(=O)c1cn(-c2ccc(OCc3cc(Cl)nc(Cl)c3)cc2)c2ccccc12 [Example 13, {1-[4-(2,6-Dichloropyridin-4-ylmethoxy)phenyl]1H-indol-3-yl}(oxo)acetic acid] | – | –

More lines, now with the values behind:

Compound | inhibition at 25 µM [1] | Inhibition (%) (100 uM) [1] | further results
N#Cc1ccc(COc2ccc(-n3cc(C(=O)C(=O)O)c4ccccc43)cc2)cc1 [Example 1, (1-{4-[(4-Cyanobenzyl)oxy]phenyl}-1H-indol-3-yl)(oxo)acetic acid] | 23% | – | –
C=CCOc1ccc2c(c1)c(C(=O)C(=O)O)cn2CC1CCC1 [Example 24, (5-Allyloxy-1-cyclobutylmethyl-1H-indol-3-yl)-oxo-acetic acid] | – | 13% | –
C=CCOc1ccc2c(c1)c(C(=O)C(=O)O)cn2CCc1ccccc1 [Example 25, (5-Allyloxy-1-phenethyl-1H-indol-3-yl)-oxo-acetic acid] | – | 8% | –
CCOC(=O)c1ccc(COc2ccc(-n3cc(C(=O)C(=O)O)c4cc(F)ccc43)cc2)o1 [Example 14, 5-[4-(5-Fluoro-3-carboxy(oxo)methyl-1H-indol-1-yl)phenoxymethyl]furan-2-carboxylic acid ethyl ester] | – | – | Inhibition @25 uM (%) [1]: 43%
C=CCOc1ccc2c(c1)c(C(=O)C(=O)O)cn2CCc1ccc(Br)cc1 [Example 30, {5-Allyloxy-1-[2-(4-bromophenyl)-ethyl]-1H-indol-3-yl}-oxo-acetic acid] | 29% | – | –
C=CCOc1ccc2c(c1)c(C(=O)C(=O)O)cn2CCc1cccc2ccccc12 [Example 28, [5-Allyloxy-1-(2-naphthalen-1-yl-ethyl)-1H-indol-3-yl]-oxo-acetic acid] | 12% | – | –
O=C(O)C(=O)c1cn(Cc2ccc(F)cc2)c2ccc(OCCc3ccc(F)cc3)cc12 [Example 21] | 6% | – | melting point: 171 to 173 °C
N#Cc1ccc(COc2ccc(-n3cc(C(=O)C(=O)O)c4cc(F)ccc43)cc2)cc1 [Example 4, {1-[4-(4-Cyanobenzyloxy)phenyl]-5-fluoro-1H-indol-3-yl}(oxo)acetic acid] | – | 40% | –
Cc1ccc2c(c1)c(C(=O)C(=O)O)cn2-c1ccc(OCc2ccc(Cl)cc2Cl)cc1 [Example 8, {1-[4-(2,4-Dichlorobenzyloxy)phenyl]-5-methyl-1H-indol-3-yl}(oxo)acetic acid] | – | 34% | –
C=CCOc1ccc2c(c1)c(C(=O)C(=O)O)cn2Cc1ccc2c(c1)OCO2 [Example 26, (5-Allyloxy-1-benzo[1,3]dioxol-5-ylmethyl-1H-indol-3-yl)-oxo-acetic acid] | – | 8% | –
5-[3-(5-Chloro-3-carboxy(oxo)methyl-1H-indol-1-yl)phenoxymethyl]furan-2-carboxylic acid ethyl ester [Example 17] | – | 49% | –
COc1cccc(COc2ccc(-n3cc(C(=O)C(=O)O)c4ccccc43)cc2)c1 [Example 2, {1-[4-(3-Methoxybenzyloxy)phenyl]-1H-indol-3-yl}(oxo)acetic acid] | 43% | – | –
O=C(O)C(=O)c1cn(-c2ccc(OCc3ccc(-c4csnn4)cc3)cc2)c2ccccc12 [Example 12, {1-[4-(4-[1,2,3]thiadiazol-4-ylbenzyloxy)phenyl]-1H-indol-3-yl}(oxo)acetic acid] | – | 32% | –
C=CCOc1ccc2c(c1)c(C(=O)C(=O)O)cn2CCc1cccc(C(F)(F)F)c1 [Example 29, {5-Allyloxy-1-[2-(3-trifluoromethylphenyl)-ethyl]-1H-indol-3-yl}-oxo-acetic acid] | – | 29% | –
C=CCOc1ccc2c(c1)c(C(=O)C(=O)O)cn2CCc1ccc(OC)cc1 [Example 27, {5-Allyloxy-1-[2-(4-methoxy-phenyl)-ethyl]-1H-indol-3-yl}-oxo-acetic acid] | – | 16% | –
O=C(O)C(=O)c1cn(Cc2ccccc2)c2ccc(OCc3ccccc3)cc12 [Example 22, (1-Benzyl-5-benzyloxy-1H-indol-3-yl)-oxo-acetic acid] | 13% | – | –
{1-[4-(3-Chlorobenzyloxy) phenyl]-1H-indol-3-yl}(oxo)acetic acid [Example 3] | – | – | Inhibition @25 uM (%) [1]: 78%; pIC50 [2]: < 4.60
